The record followed here is ChEMBL document CHEMBL4834424, “Targeting Chikungunya Virus Replication by Benzoannulene Inhibitors” (J Med Chem, 2021).

Structures are written as SMILES. Where only a bound is given, the exact number is not on record here.

Series [1] can be described thus: Cytotoxicity against human NHDF cells assessed as cell viability measured after 24 hrs by Cell Titer Glo luminescent assay. The class given is cell-based. As to conditions: NHDF cells. A general note: Cellular ATP, detected with luciferase, serves as a proxy for viable cell number.
Series [2] relates to Chikungunya virus. Description: Antiviral activity against CHIKV infected in human NHDF cells assessed as reduction in virus titer in cell supernatant by measuring inhibition of plaque formation using Vero cells at 10 uM pretreated with NHDF cells followed by infected with virus incubated for 24 hrs and measured following infection of supernatants with Vero cells for 48 hrs by plaque based methylene blue dye analysis. The class given is functional. To be noted: time 72 hrs.

For series [3], the system named is Chikungunya virus. The experiment in a line: Antiviral activity against CHIKV infected in human NHDF cells assessed as reduction in virus titer in cell supernatant by measuring inhibition of plaque formation using Vero cells pretreated with NHDF cells followed by infected with virus incubated for 24 hrs and measured following infection of supernatants with Vero cells for 48 hrs by plaque based methylene blue dye analysis. The class given is functional, organism-based.

For orientation: CC50 means the concentration at which the toxic effect on the cells reaches its halfway point. For orientation: EC50 means the concentration that produces a half-maximal response. In the case of `COc1cc2c(cc1NC(=O)c1ccc(C(C)(C)CO)cc1)CCCCC2`, the CC50 at 24 h in series [1] was more than 30 µM. Besides, the “log(activity)” value in the series on Chikungunya virus [2] is on record as 3.1. Besides, the EC50 in the series with Chikungunya virus [3] stood at 7.12 µM.

Consider `COc1cc2c(nc1NC(=O)c1ccc(C(C)(C)C)cc1)CCCCC2`, for which the CC50 at 24 h in series [1] is more than 30 µM. Besides, the “log(activity)” value in the series on Chikungunya virus [2] worked out at 3.18. Further, the EC50 in the series on Chikungunya virus [3] was 0.59 µM.

Consider `COc1cc2c(cc1NC(=O)c1ccc(C(C)(C)C)cc1)CCCCN2`, for which, in series [1], the CC50 at 24 h is more than 30 µM. In addition, the “log(activity)” value in the series on Chikungunya virus [2] turned out to be 3.9. For the same compound, the EC50 with Chikungunya virus [3] turned out to be 3.3 µM.

For the compound `COc1cc2c(cc1NC(=O)c1ccc(C(C)(C)C)cc1)CCC2`, the CC50 at 24 h in series [1] was more than 30 µM. In the series with Chikungunya virus [2], the “log(activity)” value was less than 1.

In the case of `CC(C)(C)c1ccc(C(=O)Nc2cc3c(cc2[N+](=O)[O-])CCCCC3)cc1`, the CC50 at 24 h in series [1] is more than 30 µM. The “log(activity)” value in the series with Chikungunya virus [2] is recorded as 0.

In the case of `COCCOc1cc2c(cc1NC(=O)c1ccc(C(C)(C)C)cc1)CCCCC2`, the CC50 at 24 h in series [1] is more than 30 µM. Moreover, the “log(activity)” value in the series with Chikungunya virus [2] is reported as 0.

As for `COc1cc2c(nc1NC(=O)c1ccc(C(C)(C)C)cc1)CCCC2`, in series [1], the CC50 at 24 h is more than 30 µM. For the same compound, the “log(activity)” value in the series on Chikungunya virus [2] is 1.3.

As for `COc1cc2c(cc1NC(=O)c1ccc(C3(O)CCC3)cc1)CCCCC2`, the CC50 at 24 h in series [1] was more than 30 µM. Further, the “log(activity)” value in the series with Chikungunya virus [2] is less than 1.

As for `CC(C)(C)c1ccc(C(=O)Nc2cc3c(cc2OCc2ccccn2)CCCC3)cc1`, in series [1], the half-maximal cytotoxic concentration (CC50) at 24 h is more than 30 µM. In addition, the “log(activity)” value in the series with Chikungunya virus [2] is 1.1. In the series with Chikungunya virus [3], the EC50 was 9.1 µM.

As for `CCCOc1cc2c(cc1NC(=O)c1ccc(C(C)(C)C)cc1)CCCCC2`, in series [1], the CC50 at 24 h was more than 30 µM. The “log(activity)” value with Chikungunya virus [2] was 1. The EC50 with Chikungunya virus [3] is 7.05 µM.

Turning to `COc1cc2c(cc1NC(=O)c1ccc(C(C)(C)C)cc1)CCCC(=O)N2`, in series [1], the CC50 at 24 h was more than 30 µM. The “log(activity)” value with Chikungunya virus [2] is recorded as less than 1.

For `COc1nc2c(cc1NC(=O)c1ccc(C(C)(C)C)cc1)CCCC2`, the CC50 at 24 h in series [1] was more than 30 µM. Further, the “log(activity)” value in the series on Chikungunya virus [2] came to 6.7. In addition, the EC50 in the series with Chikungunya virus [3] was determined as 2.3 µM.

With `CCc1cc2c(cc1C(=O)Nc1ccc(C(C)(C)C)cc1)CCCCC2`, the CC50 at 24 h in series [1] is more than 30 µM. Also, in the series on Chikungunya virus [2], the “log(activity)” value was determined as 0.2.

Consider `CC(C)(C)c1ccc(C(=O)Nc2cc3c(cc2N)CCCCC3)cc1`, for which the CC50 at 24 h in series [1] was more than 30 µM. Besides, in the series on Chikungunya virus [2], the “log(activity)” value amounted to 0.

On to `CCOc1cc2c(cc1NC(=O)c1ccc(C(C)(C)C)cc1)CCCCC2`, for which the CC50 at 24 h in series [1] is more than 30 µM. The “log(activity)” value in the series with Chikungunya virus [2] stood at 2.2. Also, in the series on Chikungunya virus [3], the EC50 was determined as 5.19 µM.

As for `COc1cc2c(cc1C(=O)Nc1ccc(-c3cc[nH]n3)cc1)CCCCC2`, in series [1], the CC50 at 24 h is more than 30 µM. The “log(activity)” value in the series on Chikungunya virus [2] is listed as 5.9. The EC50 with Chikungunya virus [3] amounted to 3.4 µM.

Regarding `CC(C)(C)c1ccc(C(=O)Nc2cc3c(cc2OCc2ccccn2)CCC3)cc1`, the CC50 at 24 h in series [1] was more than 30 µM. In addition, the “log(activity)” value in the series with Chikungunya virus [2] stood at 1.2. The EC50 with Chikungunya virus [3] was 9 µM.

Regarding `CCOc1cc2c(cc1C(=O)Nc1ccc(C(C)(C)C)cc1)CCCCC2`, the CC50 at 24 h in series [1] is more than 30 µM. In the series on Chikungunya virus [2], the “log(activity)” value is 1.5. Further, the EC50 in the series with Chikungunya virus [3] came out at 3.8 µM.

With `CC(C)(C)c1ccc(C(=O)Nc2cc3c(cc2C(F)(F)F)CCCCC3)cc1`, the CC50 at 24 h in series [1] is more than 30 µM. In addition, in the series with Chikungunya virus [2], the “log(activity)” value is recorded as 0.

Consider `COc1cc2c(cc1NC(=O)c1ccc(C(C)(C)C)cc1)CCCC(=O)N2C(C)C`, for which the CC50 at 24 h in series [1] is more than 30 µM. Besides, in the series with Chikungunya virus [2], the “log(activity)” value was determined as 1.7. In addition, in the series with Chikungunya virus [3], the EC50 was 5.1 µM.

Regarding `COc1cc2c(cc1NC(=O)c1ccc(C(C)(C)C)cc1)CCCCN2C`, the CC50 at 24 h in series [1] was more than 30 µM. In addition, the “log(activity)” value in the series with Chikungunya virus [2] is less than 1.

As to `CCOc1cc2c(cc1NC(=O)c1ccc(C(C)(C)C)cc1)CCC2`, in series [1], the cytotoxic concentration (CC50) at 24 h was more than 30 µM. In addition, the “log(activity)” value in the series on Chikungunya virus [2] is recorded as 1. In addition, the EC50 in the series with Chikungunya virus [3] was 6.23 µM.
